In the supplement of paper PMC10307832:

What was measured:
Assay in all cases: relative viability (nuclei count vs DMSO), 5 days (fraction); higher = more cells survive
Gemcitabine + Olaparib = compound: Nc1ccn([C@@H]2O[C@H](CO)[C@@H](O)C2(F)F)c(=O)n1 [Gemcitabine] + O=C(c1cc(Cc2n[nH]c(=O)c3ccccc23)ccc1F)N1CCN(C(=O)C2CC2)CC1 [Olaparib] (partner 8 µM)
Summary of the method: (§1)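 Lung cancer cell lines in 1536-well plates were dosed by pin tool the day after seeding, either with one drug alone or with a fixed anchor-drug dose plus five library-drug doses (not always all listed) in √10 steps. After 5 days, cells were fixed and their nuclei stained in one step (final 0.05% Triton X-100, 1% formaldehyde, 1 ug/ml Hoechst), then counted on 4× images. Relative viability is the nuclei count in treated wells divided by that in vehicle wells. Values are medians of duplicate plates.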

Gemcitabine + Bortezomib = compound: Nc1ccn([C@@H]2O[C@H](CO)[C@@H](O)C2(F)F)c(=O)n1 [Gemcitabine] + CC(C)C[C@H](NC(=O)[C@H](Cc1ccccc1)NC(=O)c1cnccn1)B(O)O [Bortezomib] (partner 0.002 µM)
Summary of the method: as §1

Gemcitabine + Pemetrexed = compound: Nc1ccn([C@@H]2O[C@H](CO)[C@@H](O)C2(F)F)c(=O)n1 [Gemcitabine] + Nc1nc2[nH]cc(CCc3ccc(C(=O)N[C@@H](CCC(=O)O)C(=O)O)cc3)c2c(=O)[nH]1 [Pemetrexed] (partner 0.2 µM)
Summary of the method: as §1

Gemcitabine + Alpelisib = compound: Nc1ccn([C@@H]2O[C@H](CO)[C@@H](O)C2(F)F)c(=O)n1 [Gemcitabine] + Cc1nc(NC(=O)N2CCC[C@H]2C(N)=O)sc1-c1ccnc(C(C)(C)C(F)(F)F)c1 [Alpelisib] (partner 2 µM)
Summary of the method: as §1

Row | Cell Line | relative viability (Gemcitabine + Olaparib; first compound 0.001 µM) | relative viability (Gemcitabine + Olaparib; first compound 0.003162 µM) | relative viability (Gemcitabine + Olaparib; first compound 0.01 µM) | relative viability (Gemcitabine + Olaparib; first compound 0.03162 µM) | relative viability (Gemcitabine + Olaparib; first compound 0.1 µM) | relative viability (Gemcitabine + Bortezomib; first compound 0.001 µM) | relative viability (Gemcitabine + Bortezomib; first compound 0.003162 µM) | relative viability (Gemcitabine + Bortezomib; first compound 0.01 µM) | relative viability (Gemcitabine + Bortezomib; first compound 0.03162 µM) | relative viability (Gemcitabine + Bortezomib; first compound 0.1 µM) | relative viability (Gemcitabine + Pemetrexed; first compound 0.001 µM) | relative viability (Gemcitabine + Pemetrexed; first compound 0.003162 µM) | relative viability (Gemcitabine + Pemetrexed; first compound 0.01 µM) | relative viability (Gemcitabine + Pemetrexed; first compound 0.03162 µM) | relative viability (Gemcitabine + Pemetrexed; first compound 0.1 µM) | relative viability (Gemcitabine + Alpelisib; first compound 0.001 µM) | relative viability (Gemcitabine + Alpelisib; first compound 0.003162 µM) | relative viability (Gemcitabine + Alpelisib; first compound 0.01 µM) | relative viability (Gemcitabine + Alpelisib; first compound 0.03162 µM) | relative viability (Gemcitabine + Alpelisib; first compound 0.1 µM)
1 | 201T | 0.884 | 0.844 | 0.826 | 0.302 | 0.262 | 1.03 | 1.09 | 1.12 | 0.952 | 0.401 | 0.291 | 0.327 | 0.288 | 0.254 | 0.286 | 0.939 | 0.97 | 0.943 | 0.396 | 0.331
2 | A549 | 0.296 | 0.279 | 0.0098 | 0.0228 | 0.014 | – | – | – | – | – | – | – | – | – | – | 0.919 | 0.276 | 0.0341 | 0.0189 | 0.0253
3 | A-427 | 0.756 | 0.745 | 0.481 | 0.259 | 0.199 | 0.99 | 0.996 | 0.68 | 0.225 | 0.139 | 0.986 | 0.93 | 0.851 | 0.351 | 0.249 | 1.03 | 0.99 | 0.764 | 0.169 | 0.0914
4 | ABC-1 | – | 0.687 | 0.54 | 0.427 | 0.398 | 0.344 | 0.313 | 0.372 | 0.233 | 0.239 | – | – | – | – | – | 0.95 | 0.97 | 0.838 | 0.45 | 0.307
5 | BEN | 0.946 | 0.421 | 0.234 | 0.193 | 0.145 | 0.79 | 0.669 | 0.198 | 0.118 | 0.113 | 0.774 | 0.417 | 0.277 | 0.164 | 0.223 | 1.09 | 0.659 | 0.253 | 0.117 | 0.0816
6 | CAL-12T | 0.714 | 0.641 | 0.551 | 0.228 | 0.201 | 1.01 | 0.822 | 0.521 | 0.267 | 0.254 | 1.38 | 1.07 | 1.04 | 0.286 | 0.156 | 1.6 | 0.917 | 0.84 | 0.285 | 0.164
7 | COR-L23 | 0.35 | 0.31 | 0.141 | 0.0915 | 0.0858 | 1.04 | 0.949 | 0.66 | 0.114 | 0.101 | 0.198 | 0.19 | 0.19 | 0.14 | 0.129 | 0.763 | 0.634 | 0.229 | 0.118 | 0.0742
8 | COR-L 105 | 0.692 | 0.774 | 0.625 | 0.357 | 0.282 | 0.867 | 0.851 | 0.479 | 0.23 | 0.201 | 1.32 | 1.01 | 0.895 | 0.37 | 0.282 | 1.22 | 0.95 | 0.526 | 0.261 | 0.21
9 | Calu-6 | 0.529 | 0.465 | 0.24 | 0.119 | 0.0919 | 1.04 | 0.57 | 0.26 | 0.167 | 0.159 | – | – | – | – | – | 1.02 | 0.415 | 0.224 | 0.13 | 0.12
10 | ChaGo-K-1 | 0.471 | 0.452 | 0.22 | 0.182 | 0.146 | 1 | 0.424 | 0.341 | 0.23 | 0.303 | 0.247 | 0.23 | 0.23 | 0.209 | 0.183 | – | – | – | – | –
11 | EBC-1 | 0.73 | 0.195 | 0.141 | 0.116 | 0.107 | 0.53 | 0.307 | 0.15 | 0.198 | 0.164 | – | – | – | – | – | 0.589 | 0.21 | 0.168 | 0.187 | 0.165
12 | EKVX | 0.898 | 0.672 | 0.289 | 0.174 | 0.11 | 0.995 | 1.07 | 0.461 | 0.18 | 0.142 | 0.351 | 0.333 | 0.133 | 0.151 | 0.14 | 0.93 | 0.77 | 0.454 | 0.147 | 0.132
13 | EMC-BAC-2 | 0.534 | 0.578 | 0.316 | 0.181 | 0.201 | 1.09 | 1.1 | 1.08 | 0.161 | 0.169 | 0.439 | 0.454 | 0.389 | 0.27 | 0.292 | 0.726 | 0.768 | 0.627 | 0.12 | 0.0893
14 | EPLC-272H | 0.967 | 0.545 | 0.221 | 0.0733 | 0.0557 | 0.87 | 0.786 | 0.419 | 0.358 | 0.121 | 0.316 | 0.33 | 0.132 | 0.178 | 0.108 | 1.04 | 0.809 | 0.541 | 0.304 | 0.1
15 | H3255 | 0.573 | 0.528 | 0.451 | 0.269 | 0.242 | 0.848 | 0.547 | 0.576 | 0.19 | 0.199 | 0.565 | 0.519 | 0.591 | 0.335 | 0.224 | 0.8 | 0.403 | 0.472 | 0.185 | 0.168
16 | HARA | 0.927 | 1.1 | 0.535 | 0.162 | 0.0774 | 1.15 | 1.22 | 1.04 | 0.695 | 0.1 | 0.272 | 0.263 | 0.236 | 0.196 | 0.0974 | 0.827 | 0.808 | 0.682 | 0.233 | 0.0894
17 | HCC-15 | 0.831 | 0.73 | 0.625 | 0.175 | 0.103 | 1.06 | 0.986 | 0.931 | 0.915 | 0.255 | 0.224 | 0.226 | 0.226 | 0.229 | 0.109 | 1.01 | 0.893 | 0.766 | 0.145 | 0.0627
